Molecular target: T1, T. thermophilus methylenetetrahydrofolate dehydrogenase (TtMTHFD) (Thermus thermophilus, UniProt Q5SJ94)
T1 construct: gene folD; His-tagged (pQtev, tag removal not mentioned), expressed in E. coli BL21(DE3), 33 kDa, dimer; 277 residues in the model, one chain per asymmetric unit
T1 sequence (Q5SJ94 1-282): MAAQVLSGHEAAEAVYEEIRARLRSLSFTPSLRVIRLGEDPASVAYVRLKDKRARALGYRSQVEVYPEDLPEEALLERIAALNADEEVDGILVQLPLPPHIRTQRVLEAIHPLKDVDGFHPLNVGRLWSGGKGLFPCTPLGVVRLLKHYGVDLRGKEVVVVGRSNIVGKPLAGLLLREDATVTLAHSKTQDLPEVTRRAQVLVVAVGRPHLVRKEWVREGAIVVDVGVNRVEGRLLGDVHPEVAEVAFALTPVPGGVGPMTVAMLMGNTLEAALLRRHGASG
Assay: X-ray crystal structure, […] A
Conditions: crystals from 800 mM potassium sodium tartrate, 100 mM HEPES pH 7.5; nucleotide binding domain; NADP+ addition not described

NC(=O)c1ccc[n+]([C@@H]2O[C@H](COP(=O)(O)OP(=O)(O)OC[C@H]3O[C@@H](n4cnc5c(N)ncnc54)[C@H](OP(=O)(O)O)[C@@H]3O)[C@@H](O)[C@H]2O)c1 [NADP^+]
X-ray crystal structure, 2.15 A: we were able to unambiguously identify and fit a molecule of NADP^+

— publication PMC7219735, “Crystal structure of Thermus thermophilus methylenetetrahydrofolate dehydrogenase and determinants of thermostability” (PLoS ONE, 2020)
